In paper PMC2533354, “Highly specific inhibition of leukaemia virus membrane fusion by interaction of peptide antagonists with a conserved region of the coiled coil of envelope” (Retrovirology, 2008):
In brackets after ≈: the same amount, converted by molar mass. Where a SMILES comes first, the peptide text is derived from it.

What was measured:
[1] = Relative peptide solubility by laser nephelometry; assay type: physicochemical; conditions: filtered PBS with 1.5 % DMSO, maximum solubility in aqueous solution, two-fold serial dilution from DMSO stock, 200 μl, 1 hr at room temperature, laser nephelometry (forward scattered light, NEPHELOstar), duplicate wells, in solution if reading up to 3-fold the DMSO control
Method: A two-fold serial dilution of peptide in DMSO was performed, and added in duplicate to 96-well microplates. Filtered PBS was added to give a total volume of 200 μl and a final DMSO concentration of 1.5 % in all wells. The plates were incubated at room temperature for 1 hr and the relative solubility of peptides was established by measuring forward scattered light using a NEPHELOstar laser-based microplate nephelometer (BMG LABTECH). Wells containing PBS and 1.5 % DMSO only were used as blanks. Data analysis was carried out using ActivityBase, and peptides giving readings up to and including 3-fold higher than the average reading for the DMSO control were considered to be in solution at the concentrations specified.

BLV envelope = target: T1, BLV envelope (Bovine leukemia virus, UniProt P51519); assay: Syncytium interference assay, BLV envelope-expressing HeLa effector cells; assay type: cell-based
T1 construct: A fragment encompassing the entire BLV envelope open reading frame; expressed in transfected cells; host or cells: HeLa (co-transfected with pRSV-Rev)
T1 sequence (P51519 302-515): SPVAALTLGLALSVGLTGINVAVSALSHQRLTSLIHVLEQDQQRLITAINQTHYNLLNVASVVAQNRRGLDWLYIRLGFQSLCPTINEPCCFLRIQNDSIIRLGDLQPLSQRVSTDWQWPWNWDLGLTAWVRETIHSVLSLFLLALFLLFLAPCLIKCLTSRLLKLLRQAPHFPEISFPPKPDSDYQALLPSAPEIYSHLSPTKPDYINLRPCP
Method: (§1) Briefly, HeLa cells for use as effector cells were transfected with the envelope expression vector pHTE-1 or with equal amounts of pCMV-BLVenv-RRE and pRSV-Rev using the Genejuice™ transfection reagent (Novagen) in accordance with the manufacturer's instructions. 24 h later, 3 × 10^5 effector cells were added to 7 × 10^5 untransfected HeLa target cells in six-well dishes (Nunc). Where appropriate, the co-culture was incubated in the presence of peptides at the concentrations specified. To assess the ability of the peptides to inhibit fusion induced by virally expressed BLV envelope, 2 × 10^5 BLV-infected FLK cells were used as effectors and added to 8 × 10^5 uninfected HeLa cells. After incubation at 37°C for 16 h, cells were washed twice with PBS and fixed in PBS + 3% paraformaldehyde. Assays were performed in triplicate and the number of syncytia (defined as multinucleated cells with 4 or more nuclei) from 10 low-power fields (LPF) per replicate was scored by light microscopy; some assays were stained using Giemsa. A syncytium formation value of 100% is defined as the number of syncytia formed in the absence of peptide but in the presence of 1.5% DMSO.

[2] = test system: virally expressed BLV envelope (BLV-infected FLK cells); conditions: chronically BLV infected FLK effector cells + HeLa target cells; result in words (Figure 3C)
Method: as §1

[3] = result in words, concentration not given (Figures 3B, 4A, 4C)
[4] = up to 20 μM, result in words (Figure 4D)

Compound | solubility kinetic at 1 h [1] | Inhibition of BLV Env-induced membrane fusion (BLV envelope; [3]) | also measured
CC[C@H](C)[C@H](NC(=O)[C@H](CC(C)C)NC(=O)[C@H](CO)NC(=O)[C@H](Cc1c[nH]cn1)NC(=O)[C@@H](NC(=O)[C@H](CC(C)C)NC(=O)[C@H](CC(C)C)NC(=O)[C@H](CO)NC(=O)[C@@H](NC(=O)[C@H](Cc1ccc(O)cc1)NC(=O)[C@H](CC(N)=O)NC(=O)[C@H](CC(N)=O)NC(=O)[C@@H](NC(=O)[C@H](CCC(=O)O)NC(=O)[C@H](CCCNC(=N)N)NC(=O)[C@H](CC(=O)O)NC(=O)[C@H](Cc1c[nH]c2ccccc12)NC(=O)[C@H](CCC(=O)O)NC(=O)[C@H](CCSC)NC(=O)[C@H](Cc1c[nH]c2ccccc12)NC(=O)CNC(C)=O)[C@@H](C)CC)[C@@H](C)O)[C@@H](C)CC)C(=O)N[C@@H](CCC(=O)O)C(=O)N[C@@H](CCC(=O)O)C(=O)N[C@@H](CO)C(=O)N[C@@H](CCC(N)=O)C(=O)N[C@@H](CC(N)=O)C(=O)N[C@@H](CCC(N)=O)C(=O)N[C@@H](CCC(N)=O)C(=O)N[C@@H](CCC(=O)O)C(=O)N[C@@H](CCCCN)C(=O)N[C@@H](CC(N)=O)C(=O)N[C@@H](CCC(=O)O)C(=O)N[C@@H](CCC(N)=O)C(=O)N[C@@H](CCC(=O)O)C(=O)N[C@@H](CC(C)C)C(=O)N[C@@H](CC(C)C)C(N)=O [Peptide C34, reference compound] (Ac-GWMEWDREINNYTSLLIHSLIEESQNQQEKNEQELL-NH2) | > 90 µM | did not interfere | 
CC[C@H](C)[C@H](NC(=O)[C@H](CCCNC(=N)N)NC(=O)[C@H](CC(C)C)NC(=O)[C@H](Cc1ccccc1)NC(=O)[C@H](CS)NC(=O)[C@H](CS)NC(C)=O)C(=O)N[C@@H](CCC(N)=O)C(=O)N[C@@H](CC(N)=O)C(=O)N[C@@H](CC(=O)O)C(=O)N[C@@H](CO)C(=O)N[C@H](C(=O)N[C@H](C(=O)N[C@@H](CCCNC(=N)N)C(=O)N[C@@H](C)C(=O)NCC(=O)N[C@@H](CC(=O)O)C(=O)N[C@@H](CC(C)C)C(=O)N[C@@H](CCC(N)=O)C(=O)N1CCC[C@H]1C(=O)N[C@@H](C)C(=O)N[C@@H](CO)C(=O)N[C@@H](CCC(N)=O)C(=O)N[C@@H](CCCNC(=N)N)C(=O)N[C@H](C(=O)N[C@@H](CO)C(=O)N[C@H](C(=O)N[C@@H](CC(=O)O)C(=O)N[C@@H](Cc1c[nH]c2ccccc12)C(=O)N[C@@H](CCC(N)=O)C(N)=O)[C@@H](C)O)C(C)C)[C@@H](C)CC)[C@@H](C)CC [P^BLV-L404/410A] (Ac-CCFLRIQNDSIIRAGDLQPASQRVSTDWQ-NH2) | > 90 µM |  | Inhibition of BLV Env-induced membrane fusion (BLV envelope; [4]): failed to display any fusion-blocking activity
CC[C@H](C)[C@H](NC(=O)[C@H](CCCNC(=N)N)NC(=O)[C@H](C)NC(=O)[C@H](Cc1ccccc1)NC(=O)[C@H](CS)NC(=O)[C@H](CS)NC(C)=O)C(=O)N[C@@H](CCC(N)=O)C(=O)N[C@@H](CC(N)=O)C(=O)N[C@@H](CC(=O)O)C(=O)N[C@@H](CO)C(=O)N[C@H](C(=O)N[C@H](C(=O)N[C@@H](CCCNC(=N)N)C(=O)N[C@@H](C)C(=O)NCC(=O)N[C@@H](CC(=O)O)C(=O)N[C@@H](C)C(=O)N[C@@H](CCC(N)=O)C(=O)N1CCC[C@H]1C(=O)N[C@@H](C)C(=O)N[C@@H](CO)C(=O)N[C@@H](CCC(N)=O)C(=O)N[C@@H](CCCNC(=N)N)C(=O)N[C@H](C(=O)N[C@@H](CO)C(=O)N[C@H](C(=O)N[C@@H](CC(=O)O)C(=O)N[C@@H](Cc1c[nH]c2ccccc12)C(=O)N[C@@H](CCC(N)=O)C(N)=O)[C@@H](C)O)C(C)C)[C@@H](C)CC)[C@@H](C)CC [P^BLV-L/A] (Ac-CCFARIQNDSIIRAGDAQPASQRVSTDWQ-NH2) | 45 µM (≈ 148 µg/mL) |  | Inhibition of BLV Env-induced membrane fusion (BLV envelope; [4]): did not exhibit any discernible inhibition
CC[C@H](C)[C@H](NC(=O)[C@H](CO)NC(=O)[C@@H](NC(=O)[C@H](Cc1c[nH]cn1)NC(=O)[C@H](CO)NC(=O)[C@H](CC(N)=O)NC(=O)[C@@H](NC(=O)[C@@H](NC(=O)[C@H](CC(N)=O)NC(=O)[C@H](CC(C)C)NC(=O)[C@H](Cc1ccccc1)NC(=O)[C@H](CS)NC(=O)[C@H](CS)NC(C)=O)[C@@H](C)CC)[C@@H](C)O)C(C)C)C(=O)N[C@@H](CC(C)C)C(=O)N[C@@H](CCC(N)=O)C(=O)N[C@@H](CCC(=O)O)C(=O)N[C@@H](CCCNC(=N)N)C(=O)N1CCC[C@H]1C(=O)N1CCC[C@H]1C(=O)N[C@@H](CC(C)C)C(=O)N[C@@H](CCC(=O)O)C(=O)N[C@@H](CC(N)=O)C(=O)N[C@@H](CCCNC(=N)N)C(=O)N[C@H](C(=O)N[C@@H](CC(C)C)C(=O)N[C@H](C(=O)NCC(=O)N[C@@H](Cc1c[nH]c2ccccc12)C(=O)NCC(=O)N[C@@H](CC(C)C)C(N)=O)[C@@H](C)O)C(C)C [P^cr-400, reference compound] (Ac-CCFLNITNSHVSILQERPPLENRVLTGWGL-NH2) | > 90 µM |  | Inhibition of membrane fusion induced by virally expressed BLV envelope [2]: did not block; Inhibition of membrane fusion induced by BLV envelope (BLV envelope; concentrations up to 15 μM and above, result in words): failed to inhibit
CC[C@H](C)[C@H](NC(=O)[C@H](CCCNC(=N)N)NC(=O)[C@H](CC(C)C)NC(C)=O)C(=O)N[C@@H](CCC(N)=O)C(=O)N[C@@H](CC(N)=O)C(=O)N[C@@H](CC(=O)O)C(=O)N[C@@H](CO)C(=O)N[C@H](C(=O)N[C@H](C(=O)N[C@@H](CCCNC(=N)N)C(=O)N[C@@H](CC(C)C)C(=O)NCC(=O)N[C@@H](CC(=O)O)C(=O)N[C@@H](CC(C)C)C(=O)N[C@@H](CCC(N)=O)C(=O)N1CCC[C@H]1C(=O)N[C@@H](CC(C)C)C(=O)N[C@@H](CO)C(=O)N[C@@H](CCC(N)=O)C(=O)N[C@@H](CCCNC(=N)N)C(=O)N[C@H](C(=O)N[C@@H](CO)C(=O)N[C@H](C(=O)N[C@@H](CC(=O)O)C(=O)N[C@@H](Cc1c[nH]c2ccccc12)C(=O)N[C@@H](CCC(N)=O)C(N)=O)[C@@H](C)O)C(C)C)[C@@H](C)CC)[C@@H](C)CC [P^BLV-ΔCCF] (Ac-LRIQNDSIIRLGDLQPLSQRVSTDWQ-NH2) | 11.2 µM (≈ 34.8 µg/mL) |  | inhibition at 30 µM (BLV envelope; HeLa, read-out: Inhibition of syncytium formation): 40%; Inhibition of BLV Env-induced membrane fusion (BLV envelope; peptide concentrations below 11 μM, where the peptide is soluble, result in words): fails to inhibit membrane fusion
CC[C@H](C)[C@H](NC(=O)[C@H](CO)NC(C)=O)C(=O)N[C@H](C(=O)N[C@@H](CCCNC(=N)N)C(=O)N[C@@H](CC(C)C)C(=O)NCC(=O)N[C@@H](CC(=O)O)C(=O)N[C@@H](CC(C)C)C(=O)N[C@@H](CCC(N)=O)C(=O)N1CCC[C@H]1C(=O)N[C@@H](CC(C)C)C(=O)N[C@@H](CO)C(=O)N[C@@H](CCC(N)=O)C(=O)N[C@@H](CCCNC(=N)N)C(=O)N[C@H](C(=O)N[C@@H](CO)C(=O)N[C@H](C(=O)N[C@@H](CC(=O)O)C(=O)N[C@@H](Cc1c[nH]c2ccccc12)C(=O)N[C@@H](CCC(N)=O)C(N)=O)[C@@H](C)O)C(C)C)[C@@H](C)CC [P^BLV-ΔN] (Ac-SIIRLGDLQPLSQRVSTDWQ-NH2) | > 90 µM | lacked detectable inhibitory activity | 
CC[C@H](C)[C@H](NC(=O)[C@H](CCCNC(=N)N)NC(=O)[C@H](CC(C)C)NC(=O)[C@H](Cc1ccccc1)NC(=O)[C@H](CS)NC(=O)[C@H](CS)NC(C)=O)C(=O)N[C@@H](CCC(N)=O)C(=O)N[C@@H](CC(N)=O)C(=O)N[C@@H](CC(=O)O)C(=O)N[C@@H](CO)C(=O)N[C@H](C(=O)N[C@H](C(=O)N[C@@H](CCCNC(=N)N)C(=O)N[C@@H](CC(C)C)C(=O)NCC(=O)N[C@@H](CC(=O)O)C(=O)N[C@@H](CC(C)C)C(=O)N[C@@H](CCC(N)=O)C(=O)N1CCC[C@H]1C(=O)N[C@@H](CC(C)C)C(N)=O)[C@@H](C)CC)[C@@H](C)CC [P^BLV-ΔC] (Ac-CCFLRIQNDSIIRLGDLQPL-NH2) | > 90 µM | lacked detectable inhibitory activity | 
CC[C@H](C)[C@H](NC(=O)[C@H](CO)NC(=O)[C@@H](NC(=O)[C@H](Cc1c[nH]cn1)NC(=O)[C@H](CO)NC(=O)[C@H](CC(N)=O)NC(=O)[C@@H](NC(=O)[C@@H](NC(=O)[C@H](CC(N)=O)NC(=O)[C@H](C)NC(=O)[C@H](Cc1ccccc1)NC(=O)[C@H](CS)NC(=O)[C@H](CS)NC(C)=O)[C@@H](C)CC)[C@@H](C)O)C(C)C)C(=O)N[C@@H](C)C(=O)N[C@@H](CCC(N)=O)C(=O)N[C@@H](CCC(=O)O)C(=O)N[C@@H](CCCNC(=N)N)C(=O)N1CCC[C@H]1C(=O)N1CCC[C@H]1C(=O)N[C@@H](C)C(=O)N[C@@H](CCC(=O)O)C(=O)N[C@@H](CC(N)=O)C(=O)N[C@@H](CCCNC(=N)N)C(=O)N[C@H](C(=O)N[C@@H](C)C(=O)N[C@H](C(=O)NCC(=O)N[C@@H](Cc1c[nH]c2ccccc12)C(=O)NCC(=O)N[C@@H](C)C(N)=O)[C@@H](C)O)C(C)C [P^cr-400 L/A, reference compound] (Ac-CCFANITNSHVSIAQERPPAENRVATGWGA-NH2) | 45 µM (≈ 146 µg/mL) | did not interfere | 
